Source: PMC9747717, “A novel small molecule inhibitor of human Drp1” (Scientific Reports, 2022)

System: Drp1 wild type MEFs
Assay: Mitochondrial morphology analysis in Drp1 wild type MEF
Type: cell-based, mouse
Conditions: statistical significance at 10 and 50 µM
Protocol: Human foreskin fibroblasts and Drp1 wildtype and KO MEF (kindly provided by Professor Hiromi Sesaki, Johns Hopkins University, USA)[28],[29] were transduced with pAS2.EYFP.puro lentiviruses (RNAiCore, Academia Sinica, Taiwan) carrying the mitochondrial-targeted EGFP sequence as described in Kalkhoran et al.[30]. Cells were then treated with DRP1i27 (5, 10 or 50 µM) or 0.1% DMSO vehicle control for 24 h.
Mitochondrial morphology in HL-1 cells were visualised by immunostaining of mitochondrial Hsp60 antibody (Abcam, MA, USA). Images were acquired using Olympus BX60 fluorescence microscope at 600 × magnification and analysed using Fiji imaging software (ImageJ v1.53c). Cells were categorised into predominantly (> 50%) having fused or fragmented mitochondria. At least 100 cells were analysed for each treatment group.

Cc1nc[nH]c1CN1C[C@@H]2CC[C@H](C1)N(Cc1ccc(-c3cc[nH]n3)o1)C2 [DRP1i27]
cellular networks of mitochondria: dose-dependent response
